Assay results: patent US8927750B2, “Acyloxy- and phosphoryloxy-butadiene-Fe(CO)3 complexes as enzyme-triggered co-releasing molecules” (priority 2011, dated 2015)
Read-outs that look alike come from different tables or passages of the source.

Tests used:
Type in all cases: biochemical
[1] = system: lipase from Candida rugosa; test: Carbon monoxide release (Mb-assay) with lipase from Candida rugosa; conditions: for carbon monoxide release with lipase from Candida rugosa: Mb solution, closed cell, 37° C.
Description: (§1) For this purpose, a solution of 30 mg Mb in 15 mL buffer was degassed by bubbling with argon for 10 min, then reduced by addition of an excess of Na2S2O4 and degassed again for 10 min. The concentration was determined by measuring a 1:10 diluted solution and using the following equation: A=ελ·c·l with ε408 nm=188000 L mol^−1 cm^−1
(§2) A stock solution of a complex in DMSO and a solution of the esterase in phosphate buffer were added under argon before the cell was closed to prevent re-oxidation of the Fe(II) in the Mb solution to Fe(III). […] Equivalents of the esterase are given relative to the inventive complex.
The Mb solution (c=88 μM) was reduced by the addition of 22 mg (126.4 μmol, 95 eq) of Na2S2O4 in 0.1 mL buffer. 3.4 mg (12 μmol) of rac-86 were dissolved in 300 μL of DMSO to provide a 0.041 M solution. For the measurement, 6 μL (2.45·10^−7 mol, 1.2 eq) of this solution were added to 2.3 mL of the Mb solution (2.03·10^−7 mol, 1 eq) and 70 μL (approximately 0.09 eq) of a solution of 5 mg lipase from Candida rugosa in 240 μL buffer.
The Mb solution (c=95 μM) was reduced by the addition of 23 mg (132.1 μmol, 92 eq) of Na2S2O4 in 0.1 mL buffer. 1.8 mg (5.6 μmol) of rac-87 were dissolved in 180 μL of DMSO to provide a 0.031 M solution. For the measurement, 12 μL (3.74·10^−7 mol, […]) of this solution were added to 2.3 mL of the Mb solution (2.19·10^−7 mol, 1 eq) and 140 μL (approximately 0.17 eq) of a solution of 15 mg lipase from Candida rugosa in 500 μL buffer.

[2] = system: horse skeletal myoglobin (Mb); test: Carbon monoxide release (Mb-assay) without esterase/lipase; conditions: for carbon monoxide release without esterase/lipase after exposure to air: cell opened to air for 2 s; for carbon monoxide release without esterase/lipase: Mb solution, closed cell, 37° C.
Description: as §1, §2
The Mb solution (c=93 μM) was reduced by the addition of 22 mg (126.4 μmol, 91 eq) of Na2S2O4 in 0.1 mL buffer. 0.7 mg (2.8 μmol) of 2-methoxycyclohexa-1,3-dienetricarbonyliron (0) were dissolved in 70 μL of DMSO to provide a 0.039 M solution. For the measurement, 6 μL (2.39·10^−7 mol, 1.3 eq) of this solution were added to 2.3 mL of the Mb solution (2.14·10^−7 mol, 1 eq).

pig liver esterase (PLE) [3] = system: pig liver esterase (PLE); design: key to cleaved by PLE: “+” indicates kinetic racemic resolution; “−” means that no reaction took place
[4] = system: lipase from Candida rugosa; design: key to cleaved by lipase from Candida rugosa: “+” indicates kinetic racemic resolution; “−” means that no reaction took place
pig liver esterase (PLE) [5] = test: Carbon monoxide release (Mb-assay) with pig liver esterase; conditions: Mb solution, closed cell, 37° C.
Description: as §1, §2
The Mb solution (c=76 μM) was reduced by the addition of 23 mg (132.1 μmol, 116 eq) of Na2S2O4 in 0.1 mL buffer. 1.7 mg (6.2 μmol) of rac-96 were dissolved in 160 μL of DMSO to provide a 0.038 M solution. For the measurement, 6 μL (2.29·10^−7 mol, 1.3 eq) of this solution were added to 2.3 mL of the Mb solution (1.75·10^−7 mol, 1 eq) and 70 μL (approximately 0.01 eq) of a solution of 0.7 mg pig liver esterase (PLE) in 240 μL buffer.
The Mb solution (c=56 μM) was reduced by the addition of 22 mg (126.4 μmol, 151 eq) of Na2S2O4 in 0.1 mL buffer. 1.1 mg (3.0 μmol) of rac-13 were dissolved in 100 μL of DMSO to provide a 0.030 M solution. For the measurement, 3 μL (9.06·10^−8 mol, 0.7 eq) of this solution were added to 2.3 mL of the Mb solution (1.28·10^−7 mol, 1 eq) and 70 μL (approximately 0.01 eq) of a solution of 0.6 mg PLE in 240 μL buffer.

[6] = system: lipase from Candida rugosa; conditions: open tube, 10 mg complex, 20 mg lipase
[7] = time 0 min, 12 mg complex, 15 mg enzyme
[8] = time 110 min, 12 mg complex, 15 mg enzyme

Row | SMILES | carbon monoxide release with lipase from Candida rugosa [1] | carbon monoxide release without esterase/lipase after exposure to air [2] | cleaved by PLE (pig liver esterase (PLE) [3]; General Procedure I) | cleaved by lipase from Candida rugosa ([4]; General Procedure I) | conversion (%) ([4]; time 0 min, 8 mg enzyme) | conversion (%) [4, 7] | conversion (%) ([4]; time 30 min, 8 mg enzyme) | conversion (%) ([4]; time 60 min, 8 mg enzyme) | conversion (%) ([4]; time 110 min, 8 mg enzyme) | conversion (%) [4, 8] [%] | conversion (%) ([4]; time 240 min, 8 mg enzyme) | carbon monoxide release with pig liver esterase (pig liver esterase (PLE) [5]) | carbon monoxide release without esterase/lipase [2] | conversion (%) ([6]; time 0 min) | conversion (%) ([6]; time 15 min) | conversion (%) ([6]; time 30 min) | conversion (%) ([6]; time 60 min) | conversion (%) ([6]; time 110 min) | further results
1 | CC(C)(C)C(=O)OC1=CCCC=C1.[C-]#[O+].[C-]#[O+].[C-]#[O+].[Fe] [rac-87, (RS)-[η^4-Cyclohexa-1,5-dien-1-yl-tricarbonyliron(0)] pivalate] | no carbon monoxide release | no carbon monoxide was released | − | + | 0/0% | 0/0% | 4 | 6 | 8 | 47 | 12 |  |  |  |  |  |  |  | carbon monoxide release with lipase from Candida rugosa after exposure to air ([1]; cell opened to air for 2 s after 360 min, conversion of Mb-O2 to MbCO): carbon monoxide release; conversion (%) ([4]; time 240 min, 12 mg complex, 15 mg enzyme): 60%; conversion (%) ([4]; time 24 h, 8 mg enzyme): 47%; conversion (%) ([4]; time 24 h, 12 mg complex, 15 mg enzyme): 73%
2 | CC(=O)OC1=CC(C)(C)CC(OC(C)=O)=C1.[C-]#[O+].[C-]#[O+].[C-]#[O+].[Fe] [rac-13, reference compound] |  |  | + | − |  |  |  |  |  |  |  | carbon monoxide release | no significant amount of carbon monoxide was released |  |  |  |  |  | conversion (%) (pig liver esterase (PLE) [3]; time 15 min, 13 mg complex, 0.8 mg enzyme): 3%; conversion (%) (pig liver esterase (PLE) [3]; time 30 min, 13 mg complex, 0.8 mg enzyme): 12%; conversion (%) (pig liver esterase (PLE) [3]; time 45 min, 13 mg complex, 0.8 mg enzyme): 54%; conversion (%) (pig liver esterase (PLE) [3]; time 150 min, 13 mg complex, 0.8 mg enzyme): 64%; conversion (%) (pig liver esterase (PLE) [3]; time 210 min, 13 mg complex, 0.8 mg enzyme): 80%
3 | CC(=O)OC1=CC=CCC1.[C-]#[O+].[C-]#[O+].[C-]#[O+].[Fe] [rac-96, (RS)-[θ^4-Cyclohexa-1,3-dien-1-yl-tricarbonyliron(0)]acetate] |  |  | + | + |  | 0/0% |  |  |  | 83 |  | carbon monoxide release | no carbon monoxide release | 0/0% | 65 | 77 | 79 | 81 | conversion (%) (pig liver esterase (PLE) [3]; time 0 min, 10 mg complex, 1 mg enzyme): 0%; conversion (%) (pig liver esterase (PLE) [3]; time 120 min, 10 mg complex, 1 mg enzyme): 28%; conversion (%) (pig liver esterase (PLE) [3]; time 180 min, 10 mg complex, 1 mg enzyme): 45%; conversion (%) (pig liver esterase (PLE) [3]; time 300 min, 10 mg complex, 1 mg enzyme): 52%; conversion (%) (pig liver esterase (PLE) [3]; time 420 min, 10 mg complex, 1 mg enzyme): 77%; conversion (%) (pig liver esterase (PLE) [3]; time 540 min, 10 mg complex, 1 mg enzyme): 84%; conversion (%) (pig liver esterase (PLE) [3]; time 660 min, 10 mg complex, 1 mg enzyme): 89%; conversion (%) ([4]; time 15 min, 12 mg complex, 15 mg enzyme): 43%; conversion (%) ([4]; time 30 min, 12 mg complex, 15 mg enzyme): 57%; conversion (%) ([4]; time 60 min, 12 mg complex, 15 mg enzyme): 76%
4 | CC(=O)OC1=CCCC=C1.[C-]#[O+].[C-]#[O+].[C-]#[O+].[Fe] [rac-86, (RS)-[η^4-Cyclohexa-1,5-dien-1-yl-tricarbonyliron(0)]acetate] | carbon monoxide release |  | − | + | 0/0% |  | 68 | 82 | 93 |  | 98 | carbon monoxide release | no carbon monoxide was released | 0/0% | 60 | 79 | 85 | 97 | conversion (%) ([4]; time 15 min, 8 mg enzyme): 32%
5 | COC1=CCCC=C1.O=[C]=[Fe](=[C]=O)=[C]=O [2-methoxycyclohexa-1,3-dienetricarbonyliron (0), reference compound] |  | no carbon monoxide was released | − | − |  |  |  |  |  |  |  |  | no carbon monoxide release |  |  |  |  |  | reaction with PLE (pig liver esterase (PLE) [3]; General Procedure I): did not react; reaction with lipase from Candida rugosa ([4]; General Procedure I): did not react
